{"source": "patent US7638122B2", "about": "“Stat3 antagonists and their use as vaccines against cancer” (University of South Florida, priority 2003, dated 2009)", "test_system": "bone marrow progenitor cells", "assay": "DC differentiation/maturation from bone marrow progenitor cells in the presence of tumor supernatants", "type": "cell-based, mouse", "conditions": "supernatant from CT26 tumor cells (5%), 375 μM peptide, 6 days", "protocol": "FIG. 7. Inhibition of Stat activity in dendritic cells alleviates the negative effect of tumor-secreted factors on DC differentiation. a, Stat activation in DCs treated for 1 hour with recombinant VEGF (100 ng/ml) or incubated for 15 min. with various supernatants as indicated. […] Bone marrow progenitor cells were cultured for 6 days in DC medium alone or in the presence of supernatant from CT26 tumor cells (5%) plus 375 μM of anti-Stat3 (PY*LKTK) (SEQ ID NO: 11); or control (PYLKTK) (SEQ ID NO: 12); peptide.\nPreparation of bone marrow progenitor cells (BMPCs) and generation of bone marrow-derived mature DCs were carried out according to a previously described protocol (Lu et al., 2000, J. Exp. Med. 191: 541-550). Relatively mature DCs were obtained by incubating, BMPCs in medium containing GM-CSF and IL-4 for 6 days. […] Following 48 hours culture, suspension cells were collected and analyzed for IL-12 secretion by ELISA (R & D) and expression of DC-surface markers (CD86, CD40 and MHC Class II) by flow cytometry. All antibodies were purchased from PharMingen and surface expression was analyzed using a FACScan cytofluorometer (Becton Dickinson) as previously described, (Lu et al., 2000, supra). […] T-cell proliferation was measured by [^3H]-thymidine incorporation over 18 hours.", "note": "Square brackets hold non-standard residues; d marks the D form. Ends that are not written are not given here. pY = N[C@@H](Cc1ccc(OP(=O)(O)O)cc1)C(=O)O"}
{"substance": "PY*LKTK (P[pY]LKTK)", "values": [{"measurement": "effect of tumor-derived factors on DC differentiation", "value": "relieve the negative effect of tumor-derived factors on DC differentiation"}]}
